Laboratory results published in ChEMBL document CHEMBL4507308 (2021).
Values belong to the compound of their own block, whether it stands above or below them. Activity calls are given as the source filed them. The rule behind the calls is not given here.

What was measured:
[1] = biological target: T1, 5-hydroxytryptamine receptor 2B (Homo sapiens, UniProt P41595); assay: GPCRScan assay: inhibition of 5-HT2B; parameters: radioligand conc. used [nm] 1.0 – 2.0, parental cells stable HEK
[2] = biological target: GABA-A receptor; anion channel; assay: GPCRScan assay: inhibition of GABAA/BZP; assay type: protein-complex assay, Rattus norvegicus; parameters: radioligand conc. used [nm] 0.6 – 4.0, parental cells brain tissue
[3] = biological target: T2, Activin receptor type-1B (Homo sapiens, UniProt P36896); assay: NanoBRET (SGC Frankfurt) (ACVR1B)
T2 sequence (P36896 whole entry): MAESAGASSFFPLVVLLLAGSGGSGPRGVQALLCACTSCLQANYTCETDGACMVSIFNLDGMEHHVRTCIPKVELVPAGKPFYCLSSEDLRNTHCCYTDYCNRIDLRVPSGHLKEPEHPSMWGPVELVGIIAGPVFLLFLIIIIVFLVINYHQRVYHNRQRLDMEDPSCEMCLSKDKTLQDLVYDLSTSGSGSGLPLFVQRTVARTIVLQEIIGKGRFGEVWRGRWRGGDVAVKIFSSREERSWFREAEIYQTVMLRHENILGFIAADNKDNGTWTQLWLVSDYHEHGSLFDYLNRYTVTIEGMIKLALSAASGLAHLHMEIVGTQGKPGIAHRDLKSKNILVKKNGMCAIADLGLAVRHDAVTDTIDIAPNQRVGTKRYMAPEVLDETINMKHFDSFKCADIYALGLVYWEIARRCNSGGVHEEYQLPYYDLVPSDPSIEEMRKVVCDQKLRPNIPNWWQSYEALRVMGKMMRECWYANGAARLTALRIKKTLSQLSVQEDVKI

[4] = biological target: TGF-beta receptor type-1 (Homo sapiens, UniProt P36897); assay: NanoBRET (SGC Frankfurt) (TGFBR1)
[5] = biological target: 5-hydroxytryptamine receptor 1A (Homo sapiens) (UniProt P08908); settings: Compound concentration 10.0 uM
[6] = biological target: 5-hydroxytryptamine receptor 1B (Homo sapiens) (UniProt P28222); settings: Compound concentration 10.0 uM
[7] = biological target: 5-hydroxytryptamine receptor 2A (Homo sapiens) (UniProt P28223); settings: Compound concentration 10.0 uM
[8] = biological target: T1, 5-hydroxytryptamine receptor 2B; settings: Compound concentration 10.0 uM
[9] = biological target: 5-hydroxytryptamine receptor 2C (Homo sapiens) (UniProt P28335); settings: Compound concentration 10.0 uM
[10] = biological target: 5-hydroxytryptamine receptor 3A (Homo sapiens) (UniProt P46098); settings: Compound concentration 10.0 uM
[11] = biological target: 5-hydroxytryptamine receptor 5A (Homo sapiens) (UniProt P47898); settings: Compound concentration 10.0 uM
[12] = biological target: 5-hydroxytryptamine receptor 6 (Homo sapiens) (UniProt P50406); settings: Compound concentration 10.0 uM
[13] = biological target: 5-hydroxytryptamine receptor 7 (Homo sapiens) (UniProt P34969); settings: Compound concentration 10.0 uM
[14] = biological target: D(1A) dopamine receptor (Homo sapiens) (UniProt P21728); settings: Compound concentration 10.0 uM
[15] = biological target: D(2) dopamine receptor (Homo sapiens) (UniProt P14416); settings: Compound concentration 10.0 uM
[16] = biological target: D(4) dopamine receptor (Homo sapiens) (UniProt P21917); settings: Compound concentration 10.0 uM
[17] = biological target: D(1B) dopamine receptor (Homo sapiens) (UniProt P21918); settings: Compound concentration 10.0 uM
[18] = biological target: Sodium-dependent serotonin transporter (Homo sapiens) (UniProt P31645); settings: Compound concentration 10.0 uM
[19] = biological target: T3, Sodium-dependent dopamine transporter (Homo sapiens, UniProt Q01959); settings: Compound concentration 10.0 uM
[20] = biological target: Histamine H1 receptor (Homo sapiens) (UniProt P35367); settings: Compound concentration 10.0 uM
[21] = biological target: Histamine H3 receptor (Homo sapiens) (UniProt Q9Y5N1); settings: Compound concentration 10.0 uM
[22] = biological target: Alpha-1A adrenergic receptor (Homo sapiens) (UniProt P35348); settings: Compound concentration 10.0 uM
[23] = biological target: Alpha-1B adrenergic receptor (Homo sapiens) (UniProt P35368); settings: Compound concentration 10.0 uM
[24] = biological target: Alpha-2A adrenergic receptor (Homo sapiens) (UniProt P08913); settings: Compound concentration 10.0 uM
[25] = biological target: Alpha-2B adrenergic receptor (Homo sapiens) (UniProt P18089); settings: Compound concentration 10.0 uM
[26] = biological target: Alpha-2C adrenergic receptor (Homo sapiens) (UniProt P18825); settings: Compound concentration 10.0 uM
[27] = biological target: Beta-1 adrenergic receptor (Homo sapiens) (UniProt P08588); settings: Compound concentration 10.0 uM
[28] = biological target: Beta-2 adrenergic receptor (Homo sapiens) (UniProt P07550); settings: Compound concentration 10.0 uM
[29] = biological target: Muscarinic acetylcholine receptor M1 (Homo sapiens) (UniProt P11229); settings: Compound concentration 10.0 uM
[30] = biological target: Muscarinic acetylcholine receptor M2 (Homo sapiens) (UniProt P08172); settings: Compound concentration 10.0 uM
[31] = biological target: Muscarinic acetylcholine receptor M3 (Homo sapiens) (UniProt P20309); settings: Compound concentration 10.0 uM
[32] = biological target: Muscarinic acetylcholine receptor M4 (Homo sapiens) (UniProt P08173); settings: Compound concentration 10.0 uM
[33] = biological target: Muscarinic acetylcholine receptor M5 (Homo sapiens) (UniProt P08912); settings: Compound concentration 10.0 uM
[34] = biological target: Beta-3 adrenergic receptor (Homo sapiens) (UniProt P13945); settings: Compound concentration 10.0 uM
[35] = biological target: T4, GABA-A receptor; anion channel (Rattus norvegicus) (UniProt O09028+P15431+P18506+P18508+P19969+P20236+P23574+P23576+P28471+P28473+P30191+P62813+P63079+P63138+Q91ZM7+Q9ES14); settings: Compound concentration 10.0 uM
[36] = organism: Rattus norvegicus; settings: Compound concentration 10.0 uM
[37] = biological target: Alpha-1D adrenergic receptor (Homo sapiens) (UniProt P25100); settings: Compound concentration 10.0 uM
[38] = biological target: Sigma intracellular receptor 2 (Homo sapiens) (UniProt Q5BJF2); settings: Compound concentration 10.0 uM
[39] = biological target: T3, Sodium-dependent dopamine transporter; assay: GPCRScan assay: inhibition of DAT; parameters: radioligand conc. used [nm] 3.6 – 16.0, parental cells stable HEK
[40] = biological target: T2, Activin receptor type-1B; assay: Lathascreen (Takeda) (ACVR1B)
[41] = biological target: T2, Activin receptor type-1B; assay: Reporter gene assay (ACVR1B)
[42] = biological target: T2, Activin receptor type-1B; assay: Radioactive kinase assay (ACVR1B)
[43] = biological target: Tyrosine-protein kinase JAK1 (Homo sapiens, UniProt P23458); assay: NanoBRET (SGC Frankfurt) (JAK1)
[44] = biological target: Phosphatidylinositol 4,5-bisphosphate 3-kinase catalytic subunit alpha isoform (Homo sapiens, UniProt P42336); assay: NanoBRET (SGC Frankfurt) (PIK3CA)
[45] = biological target: Calcium/calmodulin-dependent protein kinase type 1B (Homo sapiens, UniProt Q6P2M8); assay: NanoBRET (SGC Frankfurt) (PNCK)
[46] = biological target: Epithelial discoidin domain-containing receptor 1 (Homo sapiens, UniProt Q08345); assay: NanoBRET (SGC Frankfurt) (DDR1)
[47] = biological target: 5-hydroxytryptamine receptor 1D (Homo sapiens) (UniProt P28221); settings: Compound concentration 10.0 uM
[48] = biological target: 5-hydroxytryptamine receptor 1E (Homo sapiens) (UniProt P28566); settings: Compound concentration 10.0 uM
[49] = biological target: D(3) dopamine receptor (Homo sapiens) (UniProt P35462); settings: Compound concentration 10.0 uM
[50] = biological target: T4, GABA-A receptor; anion channel (Rattus norvegicus); settings: Compound concentration 10.0 uM; remark: listed apart in the source
[51] = biological target: Histamine H2 receptor (Homo sapiens) (UniProt P25021); settings: Compound concentration 10.0 uM
[52] = biological target: Histamine H4 receptor (Homo sapiens) (UniProt Q9H3N8); settings: Compound concentration 10.0 uM

T3 sequence (Q01959 whole entry): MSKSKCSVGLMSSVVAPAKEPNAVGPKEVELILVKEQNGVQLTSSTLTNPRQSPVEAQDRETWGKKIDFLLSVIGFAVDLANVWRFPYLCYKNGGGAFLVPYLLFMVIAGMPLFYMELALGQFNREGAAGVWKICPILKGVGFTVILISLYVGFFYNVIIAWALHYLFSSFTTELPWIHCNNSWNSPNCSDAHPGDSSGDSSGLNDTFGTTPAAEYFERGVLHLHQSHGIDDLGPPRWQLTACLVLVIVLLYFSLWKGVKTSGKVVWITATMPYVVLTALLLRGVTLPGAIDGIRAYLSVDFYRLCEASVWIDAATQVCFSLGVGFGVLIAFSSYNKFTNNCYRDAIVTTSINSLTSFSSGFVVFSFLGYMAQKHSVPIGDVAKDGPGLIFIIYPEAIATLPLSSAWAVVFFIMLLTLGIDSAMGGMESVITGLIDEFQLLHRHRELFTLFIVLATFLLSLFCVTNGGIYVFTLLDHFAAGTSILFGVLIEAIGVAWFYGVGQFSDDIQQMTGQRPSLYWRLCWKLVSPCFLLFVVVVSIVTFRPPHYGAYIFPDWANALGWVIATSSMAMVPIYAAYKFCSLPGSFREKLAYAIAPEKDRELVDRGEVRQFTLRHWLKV
T1 sequence (P41595 whole entry): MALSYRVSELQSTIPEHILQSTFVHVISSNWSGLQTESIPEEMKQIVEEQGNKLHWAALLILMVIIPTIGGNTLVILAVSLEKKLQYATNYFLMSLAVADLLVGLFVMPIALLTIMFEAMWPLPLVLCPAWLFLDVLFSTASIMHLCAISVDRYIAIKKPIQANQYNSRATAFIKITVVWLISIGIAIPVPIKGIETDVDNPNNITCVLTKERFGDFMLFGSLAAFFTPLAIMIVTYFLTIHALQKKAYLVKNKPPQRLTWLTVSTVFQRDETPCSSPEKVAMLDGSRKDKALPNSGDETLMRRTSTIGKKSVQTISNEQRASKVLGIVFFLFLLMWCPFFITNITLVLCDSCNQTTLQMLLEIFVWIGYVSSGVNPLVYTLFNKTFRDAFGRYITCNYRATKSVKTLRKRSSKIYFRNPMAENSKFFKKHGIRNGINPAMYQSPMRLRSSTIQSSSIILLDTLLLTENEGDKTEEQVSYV
Sequence of 5-hydroxytryptamine receptor 2A (Homo sapiens) (P28223 whole entry): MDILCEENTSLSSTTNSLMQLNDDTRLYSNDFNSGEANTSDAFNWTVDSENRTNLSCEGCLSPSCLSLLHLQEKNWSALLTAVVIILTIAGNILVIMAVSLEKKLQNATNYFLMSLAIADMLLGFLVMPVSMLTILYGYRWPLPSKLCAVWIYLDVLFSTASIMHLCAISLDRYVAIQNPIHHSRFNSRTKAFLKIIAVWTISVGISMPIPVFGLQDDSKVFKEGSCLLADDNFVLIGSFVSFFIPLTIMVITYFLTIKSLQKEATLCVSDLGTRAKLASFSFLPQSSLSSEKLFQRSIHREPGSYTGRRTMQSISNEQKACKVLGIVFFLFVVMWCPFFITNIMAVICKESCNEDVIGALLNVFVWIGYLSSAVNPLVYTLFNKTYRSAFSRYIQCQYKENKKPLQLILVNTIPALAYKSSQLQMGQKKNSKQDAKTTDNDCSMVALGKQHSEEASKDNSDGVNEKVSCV
Sequence of Alpha-1B adrenergic receptor (Homo sapiens) (P35368 whole entry): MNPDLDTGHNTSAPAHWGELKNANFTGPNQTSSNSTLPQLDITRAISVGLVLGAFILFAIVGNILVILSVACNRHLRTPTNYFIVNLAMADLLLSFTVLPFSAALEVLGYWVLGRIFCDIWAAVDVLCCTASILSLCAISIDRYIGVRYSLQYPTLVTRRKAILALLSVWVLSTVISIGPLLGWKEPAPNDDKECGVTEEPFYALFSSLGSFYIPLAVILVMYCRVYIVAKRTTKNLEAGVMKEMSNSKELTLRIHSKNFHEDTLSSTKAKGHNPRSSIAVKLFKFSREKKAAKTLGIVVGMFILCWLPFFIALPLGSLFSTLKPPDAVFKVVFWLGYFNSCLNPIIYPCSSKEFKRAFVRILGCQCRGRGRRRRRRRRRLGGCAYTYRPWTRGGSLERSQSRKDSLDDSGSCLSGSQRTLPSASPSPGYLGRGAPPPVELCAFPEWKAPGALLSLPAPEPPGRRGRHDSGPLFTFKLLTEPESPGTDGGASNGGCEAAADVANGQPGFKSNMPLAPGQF
Sequence of Sodium-dependent serotonin transporter (Homo sapiens) (P31645 whole entry, looked up): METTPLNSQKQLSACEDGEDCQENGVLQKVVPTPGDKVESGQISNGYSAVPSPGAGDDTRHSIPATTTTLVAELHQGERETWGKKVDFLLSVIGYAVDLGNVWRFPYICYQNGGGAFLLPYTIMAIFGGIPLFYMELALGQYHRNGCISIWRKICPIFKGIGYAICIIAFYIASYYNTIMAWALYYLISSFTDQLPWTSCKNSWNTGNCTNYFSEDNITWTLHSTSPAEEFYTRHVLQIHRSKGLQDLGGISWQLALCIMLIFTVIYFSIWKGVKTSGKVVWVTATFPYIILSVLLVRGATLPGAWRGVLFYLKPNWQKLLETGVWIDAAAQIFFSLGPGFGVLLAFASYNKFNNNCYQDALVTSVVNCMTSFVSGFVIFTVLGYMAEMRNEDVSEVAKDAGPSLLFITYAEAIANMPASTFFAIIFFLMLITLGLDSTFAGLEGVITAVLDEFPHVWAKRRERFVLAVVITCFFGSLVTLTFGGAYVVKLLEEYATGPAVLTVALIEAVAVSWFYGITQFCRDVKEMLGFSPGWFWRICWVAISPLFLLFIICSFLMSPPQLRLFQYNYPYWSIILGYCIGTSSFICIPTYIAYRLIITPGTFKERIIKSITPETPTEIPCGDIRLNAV
Sequence of Muscarinic acetylcholine receptor M3 (Homo sapiens) (P20309 whole entry, looked up): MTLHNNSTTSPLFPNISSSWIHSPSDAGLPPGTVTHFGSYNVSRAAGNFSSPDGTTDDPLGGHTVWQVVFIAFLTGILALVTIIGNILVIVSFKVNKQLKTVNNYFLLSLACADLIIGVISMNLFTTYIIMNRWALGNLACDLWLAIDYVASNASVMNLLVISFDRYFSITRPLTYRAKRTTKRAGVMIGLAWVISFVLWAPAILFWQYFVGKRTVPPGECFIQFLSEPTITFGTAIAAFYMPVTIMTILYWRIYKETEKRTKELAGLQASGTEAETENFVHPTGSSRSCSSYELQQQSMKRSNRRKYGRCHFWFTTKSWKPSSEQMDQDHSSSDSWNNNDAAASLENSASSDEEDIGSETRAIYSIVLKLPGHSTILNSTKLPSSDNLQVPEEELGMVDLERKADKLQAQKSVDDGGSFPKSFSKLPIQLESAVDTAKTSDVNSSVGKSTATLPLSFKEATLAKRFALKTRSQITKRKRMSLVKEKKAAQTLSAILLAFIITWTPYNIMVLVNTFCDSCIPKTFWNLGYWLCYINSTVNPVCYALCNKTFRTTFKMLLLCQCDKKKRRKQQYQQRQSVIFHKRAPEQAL
Sequence of Alpha-2C adrenergic receptor (Homo sapiens) (P18825 whole entry): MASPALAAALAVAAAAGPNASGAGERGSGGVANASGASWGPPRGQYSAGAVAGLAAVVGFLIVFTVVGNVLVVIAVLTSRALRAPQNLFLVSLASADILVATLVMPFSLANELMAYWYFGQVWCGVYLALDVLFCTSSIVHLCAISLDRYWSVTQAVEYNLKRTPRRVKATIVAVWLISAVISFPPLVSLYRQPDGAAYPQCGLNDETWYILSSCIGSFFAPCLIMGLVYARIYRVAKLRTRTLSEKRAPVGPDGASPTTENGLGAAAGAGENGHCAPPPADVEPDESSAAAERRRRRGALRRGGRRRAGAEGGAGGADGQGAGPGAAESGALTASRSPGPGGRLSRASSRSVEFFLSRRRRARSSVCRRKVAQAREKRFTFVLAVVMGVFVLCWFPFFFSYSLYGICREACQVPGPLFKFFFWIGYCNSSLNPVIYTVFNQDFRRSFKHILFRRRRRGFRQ
Sequence of Alpha-2A adrenergic receptor (Homo sapiens) (P08913 whole entry): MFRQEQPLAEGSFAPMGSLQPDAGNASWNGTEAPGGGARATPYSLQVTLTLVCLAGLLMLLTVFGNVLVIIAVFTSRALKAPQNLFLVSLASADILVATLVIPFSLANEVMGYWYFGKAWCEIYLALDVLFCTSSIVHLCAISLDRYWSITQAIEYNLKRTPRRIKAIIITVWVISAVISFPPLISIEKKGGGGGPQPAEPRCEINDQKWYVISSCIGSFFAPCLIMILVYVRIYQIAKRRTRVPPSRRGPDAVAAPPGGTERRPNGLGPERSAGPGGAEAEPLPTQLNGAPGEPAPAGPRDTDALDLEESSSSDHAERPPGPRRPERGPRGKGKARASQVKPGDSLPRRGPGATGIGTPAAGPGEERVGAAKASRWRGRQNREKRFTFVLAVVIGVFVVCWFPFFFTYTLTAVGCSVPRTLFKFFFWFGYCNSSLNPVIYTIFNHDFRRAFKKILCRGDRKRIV
Sequence of 5-hydroxytryptamine receptor 6 (Homo sapiens) (P50406 whole entry): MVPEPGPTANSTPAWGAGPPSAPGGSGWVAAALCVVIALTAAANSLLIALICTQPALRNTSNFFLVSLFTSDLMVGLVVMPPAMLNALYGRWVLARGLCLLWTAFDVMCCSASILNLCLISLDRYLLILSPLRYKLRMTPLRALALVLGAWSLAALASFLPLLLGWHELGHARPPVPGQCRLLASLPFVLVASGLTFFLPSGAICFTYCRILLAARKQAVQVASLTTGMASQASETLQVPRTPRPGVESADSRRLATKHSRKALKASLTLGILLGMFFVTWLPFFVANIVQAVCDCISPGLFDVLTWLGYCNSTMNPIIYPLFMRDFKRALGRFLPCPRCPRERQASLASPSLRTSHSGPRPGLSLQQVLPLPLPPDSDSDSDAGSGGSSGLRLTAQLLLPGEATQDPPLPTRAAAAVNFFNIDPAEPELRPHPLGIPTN
Sequence of Sigma intracellular receptor 2 (Homo sapiens) (Q5BJF2 whole entry): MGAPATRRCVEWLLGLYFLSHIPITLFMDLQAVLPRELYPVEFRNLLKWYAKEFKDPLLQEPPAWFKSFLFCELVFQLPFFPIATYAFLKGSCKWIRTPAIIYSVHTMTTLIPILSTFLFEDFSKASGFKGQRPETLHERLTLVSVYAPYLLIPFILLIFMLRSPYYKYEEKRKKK

Ki ([1]; read-out: Ki): 1590 nM
Ki ([1]; read-out: pKi (converted)): 1570 nM
Ki [2]: 2750 nM
IC50 [3]: > 10 µM (not active)
IC50 [4]: > 10 µM (not active)
inhibition [5]: 12%
inhibition [6]: -7.07%
inhibition [7]: 11.2%
inhibition [8]: 72%
inhibition [9]: 10.2%
inhibition [10]: 19.9%
inhibition [11]: -0.66%
inhibition [12]: 14.1%
inhibition [13]: 12.1%
inhibition [14]: -2.08%
inhibition [15]: -1.99%
inhibition [16]: -1.38%
inhibition [17]: 6.12%
inhibition [18]: 14.3%
inhibition [19]: -4.34%
inhibition [20]: -2.43%
inhibition [21]: -8.16%
inhibition [22]: 0.25%
inhibition [23]: 5.45%
inhibition [24]: 3.1%
inhibition [25]: 17.3%
inhibition [26]: 17.9%
inhibition [27]: 25.8%
inhibition [28]: 16.7%
inhibition [29]: -1.17%
inhibition [30]: 14.4%
inhibition [31]: -5.28%
inhibition [32]: 3.09%
inhibition [33]: 1.56%
inhibition [34]: 9.94%
inhibition [35]: 50.2%
inhibition [36]: 27.1%
inhibition [37]: 2.71%
inhibition [38]: 41.6%
SMILES: Cc1cnc(-c2cc(Cl)ccc2F)cc1-n1c(=O)n(CC(N)=O)c2ccccc21 [Al11]

Ki ([1]; read-out: Ki): 1880 nM
Ki [39]: 10 µM
pKi [39]: 5
IC50 [40]: 1 µM (active)
IC50 [41]: 526 nM (active)
IC50 [42]: 126 nM (active)
IC50 [43]: > 20 µM (not active)
IC50 [44]: > 20 µM (not active)
IC50 [45]: > 20 µM (not active)
IC50 [46]: > 20 µM (not active)
inhibition [5]: 22.9%
inhibition [6]: 19.5%
inhibition [47]: 5.53%
inhibition [48]: -5.81%
inhibition [7]: -0.869%
inhibition [8]: 70.5%
inhibition [9]: 15.5%
inhibition [10]: -6.36%
inhibition [11]: 16.8%
inhibition [12]: -4.28%
inhibition [13]: 3.98%
inhibition [14]: 12.9%
inhibition [15]: -5.48%
inhibition [49]: 2.27%
inhibition [16]: 5.41%
inhibition [18]: 3.84%
inhibition [19]: 87.6%
inhibition [50]: 27.3%
inhibition [20]: 0.849%
inhibition [51]: 6.53%
inhibition [21]: 30.5%
inhibition [52]: 26.6%
inhibition [22]: -2.17%
inhibition [23]: 3.76%
inhibition [24]: -0.767%
inhibition [25]: 18.1%
inhibition [26]: -5.16%
inhibition [28]: 13.9%
inhibition [29]: -3.81%
inhibition [30]: 2.23%
inhibition [31]: -7.48%
inhibition [32]: -3.08%
inhibition [33]: -5.69%
inhibition [34]: 3.94%
inhibition [35]: 31.8%
inhibition [36]: -8.98%
inhibition [38]: -2.75%
SMILES: Cc1cnc(-c2cc(Cl)ccc2F)cc1-n1c(=O)n(CC(N)=O)c2cnccc21 [TP-008]
